Results taken from ChEMBL document CHEMBL5620352, “Discovery of highly potent and selective VEGFR2 kinase inhibitors for the treatment of rheumatoid arthritis” (Eur J Med Chem, 2023).

Key:
Format in all cases: ADME, organism-based
[1] = AUC(0 to infinity) in Sprague-Dawley rat at 10 mg/kg, po measured upto 24 hrs by LC-MS/MS analysis; details: in vivo
[2] = Apparent volume of distribution in Sprague-Dawley rat at 1 mg/kg, iv measured upto 24 hrs by LC-MS/MS analysis; details: in vivo, read-out: Vz
[3] = Oral bioavailability in Sprague-Dawley rat at 10 mg/kg measured upto 24 hrs by LC-MS/MS analysis; details: in vivo
[4] = Half life in Sprague-Dawley rat at 1 mg/kg, iv measured upto 24 hrs by LC-MS/MS analysis; details: in vivo
[5] = Apparent clearance in Sprague-Dawley rat at 10 mg/kg, po measured upto 24 hrs by LC-MS/MS analysis; details: in vivo, read-out: CL(app) (converted)
[6] = Cmax in Sprague-Dawley rat at 10 mg/kg, po measured upto 24 hrs by LC-MS/MS analysis; details: in vivo
[7] = Apparent volume of distribution in Sprague-Dawley rat at 10 mg/kg, po measured upto 24 hrs by LC-MS/MS analysis; details: in vivo
[8] = Apparent clearance in Sprague-Dawley rat at 1 mg/kg, iv measured upto 24 hrs by LC-MS/MS analysis; details: in vivo, read-out: CL(app) (converted)
[9] = Cmax in Sprague-Dawley rat at 1 mg/kg, iv measured upto 24 hrs by LC-MS/MS analysis; details: in vivo
[10] = AUC(0 to infinity) in Sprague-Dawley rat at 1 mg/kg, iv measured upto 24 hrs by LC-MS/MS analysis; details: in vivo
[11] = Half life in Sprague-Dawley rat at 10 mg/kg, po measured upto 24 hrs by LC-MS/MS analysis; details: in vivo

With `COc1cccc(C(=O)Nc2cccc(Sc3ccc4c(NC(C)=O)n[nH]c4c3)c2)c1` as the compound, how does the AUC(0-inf) [1] read?
The AUC(0-inf) was 274 ng·h/mL.

And the Vd [2]?
Its Vd is 2.16 L/kg.

What about the bioavailability [3] of the same compound?
The bioavailability was 15%.

And the half-life [4]?
Its half-life is 16.8 min.

And the CL/F [5]?
The CL/F was 657 mL/min/kg.

And the Cmax [6]?
Its Cmax is 113 ng/mL.

And the Vz [7]?
Its Vz is 39752 mL/kg.

What about the clearance [8] of the same compound?
Its clearance is 96 mL/min/kg.

What about the Cmax [9] of the same compound?
Its Cmax is 689 ng/mL.

And the AUC(0-inf) [10]?
The AUC(0-inf) was 175 ng·h/mL.

What about the half-life [11] of the same compound?
The half-life was 47.4 min.
